Data on one molecule can be found in US8895746B2 (University of Central Florida Research Foundation, Inc., priority 2009, dated 2014).

In one test the test system is NIH3T3/v-Ras fibroblasts. The experiment in a line: Wound healing assay for migration. The test is classed as cell-based, mouse. The following applies: same treatment conditions. The source says:
Wounds were made using pipette tips in monolayer cultures of cells in six-well plates. […] The migration of cells was visualized at a 10× magnification using an Axiovert 200 Inverted Fluorescence Microscope (Zeiss, Göttingen Germany), with pictures taken using a mounted Canon Powershot A640 digital camera (Canon USA, Lake Success, N.Y.). Cells that migrated into the denuded area were quantified. Mice and in vivo tumor studies-Six-week-old female athymic nude mice were purchased from Harlan and maintained in the institutional animal facilities approved by the American Association for Accreditation of Laboratory Animal Care. Athymic nude mice were injected subcutaneously in the left flank area with 5×10^6 human breast cancer MDA-MB-231 cells in 100 μL of PBS. After 5 to 10 days, tumors of a diameter of 3 mm were established. […] Tumor volume was calculated according to the formula V=0.52×a^2×b, where a, smallest superficial diameter, b, largest superficial diameter.

Test [1] deals with NIH3T3/v-Src, Panc-1 and MDA-MB-231 cells. Kind of test: Colony survival assay. The format is cell-based, mouse, human. The following applies: treated once. As to the method:
This was performed as previously reported (39). […] Colonies were stained with crystal violet for 4 h and counted under phase-contrast microscope.
Cultured single-cells were untreated or treated once with S3I-201.1066 and allowed to grow until large colonies were visible, which were stained and enumerated.

Test [2] relates to NIH3T3, Stat3-null MEFs (Stat3−/−), HPDEC, TE71. The experiment in a line: Viability and growth (CyQuant, trypan blue exclusion), cells without aberrant Stat3. The note with it: up to 200 μM. The test is classed as cell-based, mouse, human. The source says: Aberrant Stat3 promotes malignant cell proliferation, survival and malignant transformation (10, 20, 42). Given that S3I201.1066 disrupts Stat3 activation, we asked the question whether this agent is able to selectively decrease the viability and growth of malignant cells that harbor aberrant Stat3 activity.

For the molecule `Cc1ccc(S(=O)(=O)N(C)CC(=O)N(Cc2ccc(C3CCCCC3)cc2)c2ccc(C(=O)O)c(O)c2)cc1` [S3I-201.1066], the migration result in the test on NIH3T3/v-Ras fibroblasts is “minimally affected”. The “number of colonies, colony survival” value in test [1] is reported as “dose-dependent suppression”. Moreover, the viability and growth entry in test [2] is recorded as “not significantly altered”.
